Assay results reported in patent US20170312333A1, “Composition for Treating Cancer Stem Cells” (Industry-Academic Corporation Foundation, Yonsei University, priority 2014, published 2017).

Experiments:
s-MDA-MB-231 = assay: Tumor volume in breast cancer animal model injected with cancer stem cells (S231); type: in vivo, BALB/c nude mice; details: for tumor volume: in mm³ (unit assumed)
Description: (§1) In order to identify a therapeutic method effective against cancer stem cells, breast cancer animal models were constructed. For construction of the breast cancer animal models, each of breast cancer cells (p-MDA-MB-231 and p-MCF-7) and breast cancer stem cell lines (s-MDA-MB-231 and s-MCF-7) was cultured in vitro, and the cultured cells were injected into the upper left flank of 5-6-week-old BALB/c nude mice at a density of 1.0×10^7 cells/mouse. Then, the mice were housed at 22° C. under a 12-hr light/12-hr dark cycle for 7 days while they were fed with water and feed, thereby constructing breast cancer animal models.

p-MDA-MB-231 = assay: Tumor volume in breast cancer animal model injected with ordinary cancer cells (P231); type: in vivo, BALB/c nude mice
Description: as §1

cancer stem cells [1] = assay: Immunoblot analysis (Western blotting) of cancer stem cells under nutrient deprivation; type: cell-based; details: 10 μM
Description: In order to examine whether apoptosis-related proteins are involved in apoptotic resistance which is the reason why the cancer stem cells show high viability under nutrient deprivation, each of p-MDA-MB-231, p-MCF-7, s-MDA-MB-231 and s-MCF-7 cell lines, cultured under glucose deprivation for 40 hours in the same manner as described in Example 2, was collected and subjected to immunoblot analysis. The collected cells were washed twice with chilled PBS (phosphate buffered saline) buffer, and lysed with RIPA buffer to isolate protein. For the next experiment, the amount of the isolated protein was measured by a BCA assay. 20 μg of the protein obtained from each of the cell lines was electrophoresed on 8-10% SDS-polyacrylamide gel and transferred to a PVDF membrane using electricity. The protein-transferred PVDP membranes were treated with 5% skim milk at room temperature for 1 hour, and then incubated with a primary antibody against each of caspase-3, caspase-7, Bcl-2 and beta-actin (control) at 4° C. for 16 hours. The PVDP membranes incubated with the antibodies were washed three times with TBST buffer to remove unbound primary antibodies, and were further incubated with HPR-conjugated secondary antibodies at room temperature for 1 hour. After completion of the incubation, the membranes were washed with TBST buffer to completely remove the secondary antibodies, and were treated with ECL buffer and incubated for 3 minutes, followed by exposure to Kodak X-OMAT AR Film. […]
(§2) In order to examine an effect which occurs when CaMK-2α signaling is inhibited, the cancer stem cells were treated with 10 μM of KN62 (1-[N,O-bis(5-isoquinolinesulfonyl)-N-methyl-L-tyrosyl]-4-phenylpiperazine) well known as an inhibitor of CaMK-2α, and then a TUNEL assay was performed in the same manner as described in Example 3.1 to examine apoptosis and DNA fragmentation. In addition, Western blotting was performed in the same manner as described in Example 3.2 to examine the expression of genes, and the viability of the cells was measured in the same manner as described in Example 2.

cancer stem cells [2] = assay: TUNEL assay (apoptosis, DNA fragmentation) in cancer stem cells under nutrient deprivation; type: cell-based; details: 10 μM
Description: In order to examine whether the reason why cancer stem cells show high viability under nutrient deprivation is because of their resistance to apoptosis, each of p-MDA-MB-231, p-MCF-7, s-MDA-MB-231 and s-MCF-7 cell lines, cultured under glucose deprivation for 40 hours in the same manner as described in Example 2, was collected and subjected to a TUNEL assay. In the TUNEL assay, the collected cells were fixed with 4% paraformaldehyde solution for 48 hours, and then stained using a Terminal Deoxynucleotidyl Transferase dUTP Nick end Labeling (TUNEL) kit according to the manufacturer's protocol, and the fluorescence images of the cells were acquired with a fluorescence microscope and analyzed using Zeiss LSM Image Browser software program. […]
as §2

cancer stem cells [3] = assay: Viability of cancer stem cells under nutrient deprivation after PMCA or SERCA inhibition; type: cell-based
Description: In order to compare the viabilities of cancer cells and cancer stem cells under glucose deprivation, each of p-MDA-MB-231, p-MCF-7, s-MDA-MB-231 and s-MCF-7 cell lines, prepared in the same manner as described in Example 1, was added to a 96-well plate at a concentration of 5×10^3 cells/100 μL and cultured to a confluence of about 70%, and then the medium was replaced with a glucose-deprived in RPMI-1640 medium containing 10% FBS, and the cells were further cultured for 3 days. At each of 0, 12, 24, 36, 48, 60 and 72 hours, the viability of each of the cell lines was determined by crystal violet staining and an MTT (3-(4,5-dimethylthiazol-2-yl)-2,5-diphenyltetrazolium bromide) assay. In order to examine whether the calcium concentration regulatory ability of the cancer stem cells is changed when PMCA is inhibited under nutrient deprivation, the activity of PMCA and SERCA was inhibited by using caloxin (which is a calcium pump inhibitor) as an inhibitor of PMCA acting as Ca^2+-ATPase (calcium ATPase) in the plasma membrane and using thapsigargin which is an inhibitor of SERCA (sarco/endoplasmic reticulum Ca^2+-ATPase) acting as Ca^2+-ATPase (calcium ATPase), and then changes in the extracellular Ca^2+ concentrations of the cancer stem cells were measured.

cancer stem cells [4] = assay: Extracellular Ca2+ concentration of cancer stem cells after PMCA or SERCA inhibition; type: cell-based; details: nutrient deprivation
Excerpt: In order to examine whether the calcium concentration regulatory ability of the cancer stem cells is changed when PMCA is inhibited under nutrient deprivation, the activity of PMCA and SERCA was inhibited by using caloxin (which is a calcium pump inhibitor) as an inhibitor of PMCA acting as Ca^2+-ATPase (calcium ATPase) in the plasma membrane and using thapsigargin which is an inhibitor of SERCA (sarco/endoplasmic reticulum Ca^2+-ATPase) acting as Ca^2+-ATPase (calcium ATPase), and then changes in the extracellular Ca^2+ concentrations of the cancer stem cells were measured.

Molecule O=CC[C@@H](O)[C@H](O)[C@H](O)CO [2DG, 2-deoxyglucose] has a tumor volume (s-MDA-MB-231; S231, day 7, i.p. once a day, 2DG 500 mg/kg, metformin 250 mg/kg, caloxin 2al 200 mg/kg) of 228.5 ± 23, a tumor volume (s-MDA-MB-231; S231, day 10, same dosing) of 277.6 ± 21 and a tumor volume (s-MDA-MB-231; S231, day 13, same dosing) of 474.4 ± 31. It also gave a tumor volume (s-MDA-MB-231; S231, day 16, same dosing) of 539.2 ± 33, a tumor volume (s-MDA-MB-231; S231, day 19, same dosing) of 638.2 ± 49 and a tumor volume (s-MDA-MB-231; S231, day 22, same dosing) of 777.0 ± 35. It also gave a tumor volume (s-MDA-MB-231; S231, day 25, same dosing) of 911.6 ± 35, a tumor volume (s-MDA-MB-231; S231, day 28, same dosing) of 1077.4 ± 68 and a tumor volume (s-MDA-MB-231; S231, day 31, same dosing) of 1290.6 ± 72. It also gave a tumor volume (s-MDA-MB-231; S231, day 34, same dosing) of 1722.1 ± 69, a tumor volume (s-MDA-MB-231; S231, day 37, same dosing) of 2471.7 ± 81 and a tumor volume (s-MDA-MB-231; S231, day 40, same dosing) of 3173.2 ± 105. The tumor volume (s-MDA-MB-231; S231, day 43, same dosing) was 4065.2 ± 119, the “tumor volume compared to control group (in words)” value (s-MDA-MB-231; cancer stem cell model) was “slightly decreased” and the tumor volume (p-MDA-MB-231; P231, day 7, i.p. once a day, 2DG 500 mg/kg, metformin 250 mg/kg, caloxin 2al 200 mg/kg, in mm³ (unit assumed)) was 219.1 ± 35. It also gave a tumor volume (p-MDA-MB-231; P231, day 10, same dosing) of 302 ± 49, a tumor volume (p-MDA-MB-231; P231, day 13, same dosing, in mm³ (unit assumed)) of 337.6 ± 47 and a tumor volume (p-MDA-MB-231; P231, day 16, same dosing, in mm³ (unit assumed)) of 388.6 ± 47. For the same molecule, the tumor volume (p-MDA-MB-231; P231, day 19, same dosing, in mm³ (unit assumed)) was 440.7 ± 45, the tumor volume (p-MDA-MB-231; P231, day 22, same dosing, in mm³ (unit assumed)) was 513.4 ± 46 and the tumor volume (p-MDA-MB-231; P231, day 25, same dosing, in mm³ (unit assumed)) was 621.4 ± 50. The tumor volume (p-MDA-MB-231; P231, day 28, same dosing, in mm³ (unit assumed)) was 834.4 ± 48, the tumor volume (p-MDA-MB-231; P231, day 31, same dosing, in mm³ (unit assumed)) was 1142.7 ± 50 and the tumor volume (p-MDA-MB-231; P231, day 34, same dosing, in mm³ (unit assumed)) was 1547.4 ± 57. For the same molecule, the tumor volume (p-MDA-MB-231; P231, day 37, same dosing, in mm³ (unit assumed)) was 1944.2 ± 64, the tumor volume (p-MDA-MB-231; P231, day 40, same dosing, in mm³ (unit assumed)) was 2359.0 ± 48 and the tumor volume (p-MDA-MB-231; P231, day 43, same dosing, in mm³ (unit assumed)) was 2866.1 ± 45.
With CN([C@@H](Cc1ccc(OS(=O)(=O)c2cccc3cnccc23)cc1)C(=O)N1CCN(c2ccccc2)CC1)S(=O)(=O)c1cccc2cnccc12 [KN62, 1-[N,O-bis(5-isoquinolinesulfonyl)-N-methyl-L-tyrosyl]-4-phenylpiperazine] the “expression of IP3R” value (cancer stem cells [1]) was “inhibited”, the “expression of SERCA2” value (cancer stem cells [1]) was “increased” and the “phosphorylation of NF-kB” value (cancer stem cells [1]) was “did not occur”. For the same molecule, the “apoptosis (TUNEL assay)” value (cancer stem cells [2]) was “inducing apoptosis”.
In the case of C/C=C(/C)C(=O)O[C@H]1C(C)=C2[C@H]([C@@H]1OC(=O)CCCCCCC)[C@@](C)(OC(C)=O)C[C@H](OC(=O)CCC)[C@@]1(O)[C@H]2OC(=O)[C@@]1(C)O [thapsigargin], the “viability of the cells” value (cancer stem cells [3]) is reported as “also high” and the “extracellular calcium concentration of the cancer stem cells” value (cancer stem cells [4]) is reported as “maintained at a high level”.
